Reference: ChEMBL document CHEMBL4425090, “Antimalarial Oxoprotoberberine Alkaloids from the Leaves of Miliusa cuneata” (J Nat Prod, 2016)

How the values were obtained:
Plasmodium falciparum [1] = experiment: Antiplasmodial activity against multidrug-resistant Plasmodium falciparum K1 infected in human RBC incubated for 18 to 20 hrs by microdilution radioisotope method; format: functional, organism-based
Vero = experiment: Cytotoxicity against African green monkey Vero cells by sulforhodamine B assay; format: cell-based; conditions: Chlorocebus sabaeus
KB = experiment: Cytotoxicity against human KB cells by sulforhodamine B assay; format: functional, cell-based
Plasmodium falciparum [2] = experiment: Antiplasmodial activity against chloroquine/antifolate-sensitive Plasmodium falciparum TM4 infected in human RBC incubated for 18 to 20 hrs by microdilution radioisotope method; format: functional, organism-based

SMILES	IC50 (Plasmodium falciparum [1]) [µM]	IC50 (Vero) [µM]	IC50 (KB) [µM]	IC50 (Plasmodium falciparum [2]) [µM]
COc1cc2c(c(OC)c1OC)CCn1c-2cc2ccc(O)c(O)c2c1=O	10.8	> 47.8	> 47.8	25.6
CC(C)=CCC/C(C)=C/[C@H]1OC(=O)C[C@]12C[C@H](O)C=CC2=O	9.1	13.5	10.2	11.1
COc1cc(O)c2c(=O)c(OC)c(-c3ccc(O)c(OC)c3)oc2c1 [PACHYPODOL]	> 47.8	> 47.8	> 47.8	> 47.8
COc1cc2c(c(OC)c1O)CCn1c-2cc2ccc(O)c(O)c2c1=O	32.4	> 47.8	> 47.8	41.4
CC1(C)N=C(N)N=C(N)N1c1ccc(Cl)cc1 [CYCLOGUANIL]	3.2			
COc1cc(/C=C/C(=O)NCCc2ccc(O)cc2)ccc1O [N-TRANS-FERULOYL TYRAMINE]	54.9	> 47.8	> 47.8	> 47.8
COc1cc2c(c(O)c1OC)CCn1c-2cc2ccc(O)c(O)c2c1=O	26.3	> 47.8	> 47.8	19.3
Cc1c2ccncc2c(C)c2c1[nH]c1ccccc12 [ELLIPTECINE]		0.4		
COc1cc([C@H]2OC[C@H]3[C@@H]2CO[C@@H]3c2cc(OC)c(O)c(OC)c2)cc(OC)c1O [SYRINGARESINOL]	> 47.8	> 47.8	> 47.8	> 47.8
COc1cc(O)c2c(=O)c(OC)c(-c3ccc4c(c3)OCO4)oc2c1	> 47.8	> 47.8	> 47.8	> 47.8
COc1cc(OC)c2c(=O)c(OC)c(-c3ccc(O)c(OC)c3)oc2c1	27.9	> 47.8	> 47.8	31.5
CCc1nc(N)nc(N)c1-c1ccc(Cl)cc1 [PYRIMETHAMINE]	31			
COc1cc2c(c(OC)c1OC)CCN1C(=O)c3c(ccc(O)c3O)C[C@@H]21	29.1	> 47.8	> 47.8	> 47.8
COc1cc(-c2oc3cc(OC)c(OC)c(O)c3c(=O)c2OC)ccc1O [CHRYSOSPLENOL B]	12.4	> 47.8	> 47.8	39.5
O=C(/C=C/c1ccc(O)cc1)NCCc1ccc(O)cc1 [N-P-COUMAROYL TYRAMINE]	> 47.8	> 47.8	> 47.8	> 47.8
COc1cc2c(c(OC)c1O)CCN1C(=O)c3c(ccc(O)c3O)C[C@@H]21	26.1	> 47.8	> 47.8	38.1
O=C(/C=C/c1ccc(O)c(O)c1)NCCc1ccc(O)cc1	23.8	> 47.8	> 47.8	> 47.8
COc1cccc2c1C(=O)c1c(O)c3c(c(O)c1C2=O)C[C@@](O)(C(=O)CO)C[C@@H]3O[C@H]1C[C@H](N)[C@H](O)[C@H](C)O1 [DOXORUBICIN]			1	
